# Assay results as given in publication PMC3479662 (Journal of medicinal chemistry, 2012).
# Marks after values point to notes of the source that are not given here.
# Key:
# hA1AR [1] = target: T1, hA1AR (Homo sapiens, UniProt P30542); details: for agonist character at the A1AR (full / partial agonist): cyclic AMP assay, hA1AR
# T1 sequence (P30542 1-326): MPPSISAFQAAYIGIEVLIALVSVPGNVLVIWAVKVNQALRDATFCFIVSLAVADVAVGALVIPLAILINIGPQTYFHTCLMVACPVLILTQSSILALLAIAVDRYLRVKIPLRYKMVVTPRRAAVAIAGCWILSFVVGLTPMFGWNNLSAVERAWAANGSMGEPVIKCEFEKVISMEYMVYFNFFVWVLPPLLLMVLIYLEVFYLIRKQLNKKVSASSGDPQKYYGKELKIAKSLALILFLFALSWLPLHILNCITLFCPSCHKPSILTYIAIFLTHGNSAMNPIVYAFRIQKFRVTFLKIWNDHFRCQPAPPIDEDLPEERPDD
# hA1AR [2] = target: T1, hA1AR; assay: Radioligand binding at hA1AR, [3H]R-PIA, membranes of CHO cells; details: human orthologue more potent than rat
# A3AR = details: read-out: Affinity Ki, A3; human unless noted; ref de Zwaart et al.[38]; cited from earlier work
# rat A1AR = details: ref Jacobson et al.[39]; cited from earlier work
# rat A2AAR = details: ref Jacobson et al.[39]; cited from earlier work
# hA2AAR = hA2AAR (Homo sapiens, UniProt P29274); assay: Stimulation of cyclic AMP production in A2AAR-expressing CHO cells; assay type: cell-based; details: cyclic AMP assay
# Sequence of hA2AAR (P29274 whole entry): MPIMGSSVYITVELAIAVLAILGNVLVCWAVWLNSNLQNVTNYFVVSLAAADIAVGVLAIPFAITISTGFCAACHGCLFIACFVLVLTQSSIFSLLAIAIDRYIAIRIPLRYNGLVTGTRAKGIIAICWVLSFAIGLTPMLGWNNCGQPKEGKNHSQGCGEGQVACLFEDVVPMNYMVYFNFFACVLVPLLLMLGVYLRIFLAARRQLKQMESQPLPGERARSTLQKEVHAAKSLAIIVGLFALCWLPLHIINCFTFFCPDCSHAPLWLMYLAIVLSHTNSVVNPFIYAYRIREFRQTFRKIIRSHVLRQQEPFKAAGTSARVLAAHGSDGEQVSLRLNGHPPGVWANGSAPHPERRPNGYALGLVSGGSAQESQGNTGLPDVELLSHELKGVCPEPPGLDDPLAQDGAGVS
SMILES,agonist character at the A1AR (full / partial agonist) (hA1AR [1]),Ki (A3AR) [nM],further results
"CCNC(=O)[C@H]1O[C@@H](n2cnc3c(N)ncnc32)[C@H](O)[C@@H]1O [Compound 1, 5′-N-ethylcarboxamidoadenosine, reference compound]",,,"Activation of A1, % of 1, 10 μM (hA1AR [1]; single point at 10 μM, effect of full agonist 1 = 100%, hA1AR CHO cells): 100 % of 1"
"Nc1ncnc2c1ncn2[C@@H]1O[C@H](C(=O)NCCCl)[C@@H](O)[C@H]1O [Compound 6, reference compound]",,332,
NCCNC(=O)[C@H]1O[C@@H](n2cnc3c(N)ncnc32)[C@H](O)[C@@H]1O [Compound 11],,,"% inhibition, A1 (rat) (rat A1AR): (>10%, rat) ^e; % inhibition, A2A (rat) (rat A2AAR): > 10%"
Nc1ncnc2c1ncn2[C@@H]1O[C@H](C(=O)NC2CCC2)[C@@H](O)[C@H]1O [Compound 18],partial agonist,23,agonist character at the A2AAR (full agonist) (hA2AAR): full agonists
Nc1ncnc2c1ncn2[C@@H]1O[C@H](C(=O)NC2CCCC2)[C@@H](O)[C@H]1O [Compound 22],full agonists,32,

# Continued, in another order:
agonist character at the A1AR (full / partial agonist) (hA1AR [1]),SMILES,Ki (A3AR) [nM],further results
partial agonists,Nc1ncnc2c1ncn2[C@@H]1O[C@H](C(=O)NCC(F)(F)F)[C@@H](O)[C@H]1O [Compound 5],,difference between rat and human A1AR binding affinities (hA1AR [2]): approximately 100 fold
full agonists,"Nc1ncnc2c1ncn2[C@@H]1O[C@H](C(=O)NC2CC2)[C@@H](O)[C@H]1O [Compound 16, reference compound]",,agonist character at the A2AAR (full agonist) (hA2AAR): full agonists
